We go through 56 compounds from patent US8685974B2 (Bayer CropScience AG, priority 2009, dated 2014).

Where two headings read alike, the source gives them in different places. Marks after values point to notes of the source that are not given here.

As for “4-[3-(5-Chloro-2-thienyl)-1-isobutyl-1H-pyrazol-4-yl]-N-propylpyridin-2-amine 1-oxide”, the “logP (pH2.7)” value (pH 2.7) is 1.90.

Regarding “4-[5-Bromo-3-(5-chloro-2-thienyl)-1-(4-methoxybenzyl)-1H-pyrazol-4-yl]pyridine and 4-[3-bromo-5-(5-chloro-2-thienyl)-1-(4-methoxybenzyl)-1H-pyrazol-4-yl]pyridine”, for the setting “pH 2.7”, the “logP (pH2.7)” value amounted to 3.53 and the “logP (pH2.7), minor isomer” value was determined as 3.0.

As for `CC(C)Cn1cc(-c2cc[n+]([O-])c(N)c2)c(-c2ccc(Cl)s2)n1` [2-Amino-4-[1-isobutyl-3-(5-chloro-2-thienyl)-1H-pyrazol-4-yl]pyridine N oxide], the “logP (pH2.7)” value (pH 2.7) was 2.39.

Take `CC(C)Cn1ncc(-c2cc[n+]([O-])c(N)c2)c1-c1ccc(Cl)s1` [2-Amino-4-[1-isobutyl-5-(5-chloro-2-thienyl)-1H-pyrazol-4-yl]pyridine N oxide]: the “logP (pH2.7)” value (pH 2.7) amounted to 2.21.

`CC(C)Cn1cc(-c2ccnc(N)c2)c(-c2ccc(Cl)s2)n1` [2-Amino-4-[1-isobutyl-(3/5)-(5-chloro-2-thienyl)-1H-pyrazol-4-yl]pyridine]: under “pH 2.7”, the “logP (pH2.7)” value was found to be 2.04 and the “logP (pH2.7), minor isomer” value is listed as 1.93.

Regarding `CC(C)Cn1cc(-c2cc[n+]([O-])c(NCc3ccccc3)c2)c(-c2ccc(Cl)s2)n1` [2-Benzylamino-4-[1-isobutyl-3-(5-chloro-2-thienyl)-1H-pyrazol-4-yl]pyridine N oxide], the “logP (pH2.7)” value (pH 2.7) amounted to 3.65.

Turning to `CC(C)Cn1ncc(-c2cc[n+]([O-])c(NCc3ccccc3)c2)c1-c1ccc(Cl)s1` [2-Benzylamino-4-[1-isobutyl-5-(5-chloro-2-thienyl)-1H-pyrazol-4-yl]pyridine N oxide], the “logP (pH2.7)” value (pH 2.7) is recorded as 3.48.

As for `CC(C)Cn1cc(-c2cc[n+]([O-])c(Cl)c2)c(-c2ccc(Cl)s2)n1` [2-Chloro-4-[1-isobutyl-3-(5-chloro-2-thienyl)-1H-pyrazol-4-yl]pyridine-N-oxyde], the “logP (pH2.7)” value (pH 2.7) is 2.82.

As for `CC(C)Cn1ncc(-c2cc[n+]([O-])c(Cl)c2)c1-c1ccc(Cl)s1` [2-Chloro-4-[1-isobutyl-5-(5-chloro-2-thienyl)-1H-pyrazol-4-yl]pyridine-N-oxyde], the “logP (pH2.7)” value (pH 2.7) turned out to be 3.06.

For the compound `[O-][n+]1ccc(-c2c[nH]nc2-c2ccc(Cl)s2)cc1Cl` [2-Chloro-4-[3-(5-chloro-2-thienyl)-1H-pyrazol-4-yl]pyridine N oxyde], the “logP (pH2.7)” value (pH 2.7) was 1.57.

`C#CCNc1cc(-c2cn(CC(C)C)nc2-c2ccc(Cl)s2)cc[n+]1[O-]` [2-Propargylamino-4-[1-isobutyl-3-(5-chloro-2-thienyl)-1H-pyrazol-4-yl]pyridine-N-oxyde]: under “pH 2.7”, the “logP (pH2.7)” value is reported as 2.70.

Regarding `C#CCNc1cc(-c2cnn(CC(C)C)c2-c2ccc(Cl)s2)cc[n+]1[O-]` [2-Propargylamino-4-[1-isobutyl-5-(5-chloro-2-thienyl)-1H-pyrazol-4-yl]pyridine-N-oxyde], the “logP (pH2.7)” value (pH 2.7) amounted to 2.92.

Take `FC(F)(F)c1ccc(-c2c(-c3ccncc3)cnn2C2CCCCO2)s1` (centres unmarked) [4-[1-(2-tetrahydropyrannyl)-5-(5-trifluoromethyl-2-thienyl)-1H-pyrazol-4-yl]pyridine]: the “logP (pH2.7)” value (pH 2.7) is 1.96.

With `CC(C)n1cc(-c2ccncc2)c(-c2cccs2)n1` [4-[1-Isopropyl-(3/5)-(2-thienyl)-1H-pyrazol-4-yl]pyridine], for the setting “pH 2.7”, the “logP (pH2.7)” value amounted to 1.27 and the “logP (pH2.7), minor isomer” value was 1.33.

As for `CC(C)n1cc(-c2ccncc2)c(-c2ccc(Br)s2)n1` [4-[1-Isopropyl-(3/5)-(5-bromo-2-thienyl)-1H-pyrazol-4-yl]pyridine], under “pH 2.7”, the “logP (pH2.7)” value is given as 1.88 and the “logP (pH2.7), minor isomer” value amounted to 1.76.

Take `CC(C)Cn1cc(-c2ccncc2)c(-c2cc3sccc3s2)n1` [4-[1-isobutyl-(3/5)-(3-thieno[3,2-b]thiophen-2-yl)-1H-pyrazol-4-yl]pyridine]: under “pH 2.7”, the “logP (pH2.7)” value is recorded as 2.07 and the “logP (pH2.7), minor isomer” value was 2.02.

Turning to `CC(C)n1cc(-c2ccncc2)c(-c2ccc(C(F)(F)F)s2)n1` [4-[1-isopropyl-(3/5)-(5-trifluoromethyl-2-thienyl)-1H-pyrazol-4-yl]pyridine], for the setting “pH 2.7”, the “logP (pH2.7)” value worked out at 2.20 and the “logP (pH2.7), minor isomer” value amounted to 2.08.

With `CCC(C)n1cc(-c2cc[n+]([O-])cc2)c(-c2ccc(Cl)s2)n1` (centres unmarked) [4-[1-sec-butyl-3-(5-chloro-2-thienyl)-1H-pyrazol-4-yl]pyridine N oxide], where the note is “pH 2.7”, the “logP (pH2.7)” value came out at 2.5.

Turning to `CCC(C)n1nc(-c2ccc(Cl)s2)c(-c2ccncc2)c1Br` (centres unmarked) [4-[5-Bromo-1-secbutyl-(3/5)-(5-chloro-2-thienyl)-1H-pyrazol-4-yl]pyridine], under “pH 2.7”, the “logP (pH2.7)” value was determined as 3.69.

With `CC(C)Nc1nccc(-c2cn(C3CCCC3)nc2-c2ccc(Cl)s2)n1` [4-[(3/5)-(5-Chloro-2-thienyl)-1-cyclopentyl-1H-pyrazol-4-yl]-2-(isopropylamino)pyrimidine], under “pH 2.7”, the “logP (pH2.7)” value turned out to be 3.61 and the “logP (pH2.7), minor isomer” value amounted to 3.33.

For `CC(C)n1cc(-c2ccnc(N=C(c3ccccc3)c3ccccc3)c2)c(-c2ccc(Cl)s2)n1` [4-[(3/5)-(5-Chloro-2-thienyl)-1-isopropyl-1H-pyrazol-4-yl]-N-(diphenylmethylene)pyridin-2-amine], where the note is “pH 2.7”, the “logP (pH2.7)” value is recorded as 4.46 and the “logP (pH2.7), minor isomer” value was determined as 3.96.

In the case of `CC(C)n1cc(-c2ccnc(N)c2)c(-c2ccc(Cl)s2)n1` [4-[(3/5)-(5-Chloro-2-thienyl)-1-isopropyl-1H-pyrazol-4-yl]pyridin-2-amine], for the setting “pH 2.7”, the “logP (pH2.7)” value amounted to 1.78 and the “logP (pH2.7), minor isomer” value stood at 1.72.

As to `CC#Cc1c(-c2ccncc2)c(-c2ccc(Cl)s2)nn1C(C)C` [4-[(3/5)-(5-Chloro-2-thienyl)-1-isopropyl-5-(prop-1-yn-1-yl)-1H-pyrazol-4-yl]pyridine], where the note is “pH 2.7”, the “logP (pH2.7)” value was found to be 2.78 and the “logP (pH2.7), minor isomer” value is recorded as 2.21.

On to `CC#Cc1c(-c2ccncc2)c(-c2ccc(Cl)s2)nn1Cc1ccc(OC)cc1` [4-[(3/5)-(5-chloro-2-thienyl)-1-(4-methoxybenzyl)-5-(prop-1-yn-1-yl)-1H-pyrazol-4-yl]pyridine], for which, for the setting “pH 2.7”, the “logP (pH2.7)” value worked out at 3.11 and the “logP (pH2.7), minor isomer” value came out at 2.61.

`Clc1sc(-c2n[nH]cc2-c2ccncc2)c(Cl)c1Cl` [Example 2]: under “pH 2.7”, the log p was 1.52^[b].

For `CCC(C)n1ncc(-c2ccncc2)c1-c1ccc(Cl)s1` (centres unmarked) [Example 9], the log p (pH 2.7) is 1.91^[b].

On to `CC(C)(C)n1ncc(-c2ccncc2)c1-c1ccc(Cl)s1` [Example 10], for which the log p (pH 2.7) is 1.95^[b].

Regarding `Clc1ccc(-c2c(-c3ccncc3)cnn2C2CCCCC2)s1` [Example 12], the log p (pH 2.7) is 2.26^[b].

For `Clc1ccc(-c2c(-c3ccncc3)cnn2C2CCCC2)s1` [Example 16], the log p (pH 2.7) is 2.13^[b].

For `CC(n1ncc(-c2ccncc2)c1-c1ccc(Cl)s1)C(C)(C)C` (centres unmarked) [Example 19], the log p (pH 2.7) was 2.47^[b].

In the case of `Clc1ccc(-c2nn(-c3ccccc3)cc2-c2ccncc2)s1` [Example 22], for the setting “pH 2.7”, the log p is 2.63^[b].

For `Clc1ccc(-c2c(-c3ccncc3)cnn2-c2ccccc2)s1` [Example 23], the log p (pH 2.7) is 1.88^[b].

Take `CC(C)(C)Cn1ncc(-c2ccncc2)c1-c1ccc(Cl)s1` [Example 25]: the log p (pH 2.7) was 2.17^[b].

For `CC(C)CCn1cc(-c2ccncn2)c(-c2ccc(Cl)s2)n1` [Example 27], the log p (pH 2.7) was 3.8^[b].

Take `CC(C)CC(C)n1ncc(-c2ccncn2)c1-c1ccc(Cl)s1` (centres unmarked) [Example 28]: where the note is “pH 2.7”, the log p was 4.29^[b].

Take `CC(C)=CCn1ncc(-c2ccncn2)c1-c1ccc(Cl)s1` [Example 29]: the log p (pH 2.7) was 3.44^[b].

With `CC(C)n1ncc(-c2ccncn2)c1-c1ccc(Cl)s1` [Example 30], under “pH 2.7”, the log p was 2.94^[b].

Regarding `CCC(C)n1ncc(-c2ccncn2)c1-c1ccc(Cl)s1` (centres unmarked) [Example 31], the log p (pH 2.7) is 3.34^[b].

As to `CC(C)C(C)n1ncc(-c2ccncn2)c1-c1ccc(Cl)s1` (centres unmarked) [Example 32], the log p (pH 2.7) was 3.8^[b].

On to `CC(n1ncc(-c2ccncn2)c1-c1ccc(Cl)s1)C(C)(C)C` (centres unmarked) [Example 33], for which the log p (pH 2.7) is 4.46^[b].

As for `CC(C)(C)Cn1ncc(-c2ccncn2)c1-c1ccc(Cl)s1` [Example 34], the log p (pH 2.7) was 3.82^[b].

Consider `Cc1ccc(-c2[nH]ncc2-c2ccncc2)s1` [Example 35], for which the log p (pH 2.7) is 0.77^[b].

Take `CC(=O)c1ccc(-c2[nH]ncc2-c2ccncc2)s1` [Example 36]: the log p (pH 2.7) was 0.62^[b].

Consider `CCCCNC(=O)c1ccc(-c2[nH]ncc2-c2ccncc2)s1` [Example 37], for which, under “pH 2.7”, the log p is 0.0^[b].

`CC(C)n1ncc(-c2ccncc2)c1-c1ccc(Cl)s1` [Example 39]: the log p is, setting by setting: (pH 2.3) 1.63^[a];; (pH 2.7) 1.7^[b].

With `Clc1cc(-c2c[nH]nc2-c2ccc(Cl)s2)ccn1` [Example 40], where the note is “pH 2.3”, the log p is 2.75^[a].

`CCC(CC)n1ncc(-c2ccncc2)c1-c1ccc(Cl)s1` [Example 41]: the log p (pH 2.3) was 2.08^[a].

Turning to `Clc1ccc(-c2c(-c3ccncc3)cnn2Cc2ccccc2)s1` [Example 42], the log p (pH 2.3) was 1.94^[a].

`Clc1ccc(-c2nn(Cc3ccccc3)cc2-c2ccncc2)s1` [Example 43]: for the setting “pH 2.3”, the log p was 2.35^[a].

As for `Clc1ccc(-c2n[nH]c(Br)c2-c2ccncc2)s1` [Example 44], the log p (pH 2.7) is 1.4^[b].

For `C=CCn1cc(-c2ccncc2)c(-c2ccc(Cl)s2)n1` [Example 48], under “pH 2.7”, the log p is 1.65^[b] and the “logP value of the minor isomer (in parenthesis in column Isomer ratio [d])” value was “(1.50)”.

With `COCCn1cc(-c2ccncc2)c(-c2ccc(Cl)s2)n1` [Example 49], under “pH 2.7”, the log p is 1.42^[b] and the “logP value of the minor isomer (in parenthesis in column Isomer ratio [d])” value is on record as “(1.29)”.

In the case of `N#CCn1cc(-c2ccncc2)c(-c2ccc(Cl)s2)n1` [Example 53], where the note is “pH 2.7”, the log p is 1.4^[b] and the “logP value of the minor isomer (in parenthesis in column Isomer ratio [d])” value is recorded as “(1.10)”.

Take `[O-][n+]1ccc(-c2c[nH]nc2-c2ccc(Cl)s2)cc1Cl` [Example 59]: the log p (pH 7.8) was 1.57^[c].

Consider `CCCNc1nccc(-c2c[nH]nc2-c2ccc(Cl)s2)n1` [Example 65], for which the log p (pH 2.3) is 1.75^[a].

Turning to `Clc1ccc(-c2n[nH]c(C3CC3)c2-c2ccncc2)s1` [Example 67], under “pH 2.7”, the log p was 1.36^[b].
